Assay results from patent US11161830B2, “4-pyridone compound or salt thereof, and pharmaceutical composition and formulation including same” (priority 2017, dated 2021).
Where two headings read alike, the source gives them in different places.

Experiments:
Type in all cases: cell-based, hepatitis B virus
HBV [1] = experiment: Test Example 1-2: anti-HBV assay in HepG2.2.15 cells (test solution 100 μL/well); conditions: culture supernatant
Procedure: (§1) Using HepG2.2.15 cells (Proc. Natl. Acad. Sci. USA, 84, 1005-1009, 1987) which have an HBV genome introduced into a hepatoblastoma cell line, HepG2, and persistently produce a virus, the anti-HBV activity of the representative compounds was evaluated in the following procedure.
(§2) The following was used as a medium:
(§3) DMEM/F-12, GlutaMAX (manufactured by Invitrogen)+5 μg/mL insulin (manufactured by Wako)+1% penicillin/streptomycin (manufactured by Sigma)+10 mmol/L HEPES (manufactured by Sigma)+50 μmol/L hydrocortisone (manufactured by Sigma)+10% FBS
(§4) A mixture of a test compound with dimethyl sulfoxide (DMSO) was further added to the medium to obtain a final concentration of DMSO of 0.25% (v/v), and thus, test solutions containing the test compound at various concentrations were prepared. In addition, a test solution obtained by adding DMSO alone to the medium to obtain a final concentration of 0.25% (v/v) was prepared as a control without addition of a drug.
(§5) (1) The HepG2.2.15 cells were suspended in the medium to prepare a. HepG2.2.15 cell suspension at 4×10^5 cells/mL. The suspension was seeded in a 96-well microtiter plate (100 μL/well) and the plate was incubated in a 5% CO2 incubator at 37° C. for 2 days.
(§6) (2) The culture supernatant was removed and the cells were washed twice with PBS (−) (100 μL/well).
(§7) (3) The test solution (200 μL/well) was added to the plate of (2) and the plate was incubated in a 5% CO2 incubator at 37° C. for 4 days.
(§8) (4) The culture supernatant was removed, the test solution (200 μL/well) was added again to the plate, and the plate was incubated in a 5% CO2 incubator at 37° C. for 3 days.
(§9) (5) The culture supernatant was collected and treated with a mixture of Buffer AL (manufactured by QIAGEN) and Proteinase K (manufactured by Invitrogen). The amount of DNA of HBV (HBV-DNA) in the obtained solution was absolutely quantified by a real-time PCR method. In addition, HBsAg (hepatitis B surface antigen) in the culture supernatant was absolutely quantified by chemiluminescent enzyme immunoassay using Lumipulse (registered trademark) HBsAg-HQ (manufactured by Fujirebio Inc.). The relative viral load (%) of a well with the compound added to a well without the compound added was calculated. An IC50 of the compound was calculated using a FORECAST function (linear regression method) of Microsoft Office Excel 2007 by plotting the logarithm of the concentration against the relative viral load as a real number.
(§10) The IC50 of HBV-DNA was defined as a concentration (or a logarithm dilution of the culture supernatant) of the compound, in which the amount of HBV-DNA is reduced by 50% as compared a control without the compound added.
(§11) In addition, the IC50 of HBsAg was defined as a concentration (or a logarithm dilution of the culture supernatant) of the compound, in which the amount of HBsAg is reduced by 50% as compared a control without the compound added.
The test was performed by the same method as in Test Example 1-1 except that the amounts of the test solutions of (3) and (4) of Test Example 1-1 was changed to 100 μL/well.

HBV [2] = experiment: Test Example 1-1: anti-HBV assay in HepG2.2.15 cells (test solution 200 μL/well); conditions: Hepatitis B virus, culture supernatant
Procedure: as §1, §2, §3, §4, §5, §6, §7, §8, §9, §10, §11

HBV (genotype AeUS) = experiment: Test Example 2-1: anti-HBV assay in PXB-cells (fresh human hepatocytes); conditions: Hepatitis B virus, Hepatocyte, PXB-cells infected with HBV genotype AeUS, culture supernatant on day 32 post infection
Procedure: Using fresh human hepatocytes (PXB-cells, manufactured by PhenixBio Co., Ltd.) collected from a PXB mouse (a chimeric mouse with human hepatocytes), the anti-HBV activity of the representative compounds was evaluated in the following procedure.
as §2
DMEM (manufactured by Sigma)+0.25 μg/mL insulin (manufactured by Wako)+1% penicillin/streptomycin. (manufactured by Sigma)+20 mmol/L HEPES (manufactured by Sigma)+15 μg/mL L-proline (manufactured by Sigma)+50 nmol/L dexamethasone (manufactured by Sigma)+5 ng/mL EGF (manufactured by Peprotech)+0.1 mmol/L ascorbic acid 2-phosphate (manufactured by Wako)+10% FBS+2% DMSO
Each of the test compounds) was further added to the medium to prepare a test solution containing each of the test compounds at various concentrations.
(1) PXB-cells seeded at a seeding density of 2.1×10^5 cells/cm^2 in a 96-well microliter plate were incubated in a 5% CO2 incubator at 37° C. until a day on which the cells were infected.
(2) HBV (genotype AeUS) derived from a PXB mouse serum was suspended in the medium containing 4% PEG-8000, and added to the plate of (1) at about 10 copies/cell such that the PXB cells were infected (100 μL/well), and the plate was incubated in a 5% CO2 incubator at 37° C. for 1 day.
(3) The culture supernatant on day 1 post infection was removed and the cells were washed three times with DMEM containing 10% FBS and 1% penicillin/streptomycin. Then, the medium was added to the plate (100 μL/well) and the plate was incubated in a 5% CO2 incubator at 37° C. for 1 day.
(4) The culture supernatant on day 2 post infection was removed and the cells were washed three times with DMEM containing 10% FBS and 1% penicillin/streptomycin. Then, the medium was added to the plate (100 μL/well) and the plate was incubated in a 5% CO2 incubator at 37° C. for 5 days.
(5) The culture supernatant on day 7 post infection was removed, the medium was added to the plate (100 μL/well), and the plate was incubated in a 5% CO2 incubator at 37° C. for 5 days.
(6) The culture supernatant on day 12 post infection was removed, the medium was added to the plate (100 μL/well), and the plate was incubated in a 5% CO2 incubator at 37° C. for 5 days.
(§12) (7) The culture supernatant on day 17 post infection was removed, the test solution was added to the plate (100 μL/well), and the plate was incubated in a 5% CO2 incubator at 37° C. for 5 days. As a control without the compound added, the medium was added to the plate (100 μL/well) and the plate was incubated in a 5% CO2 incubator at 37° C. for 5 days.
as §12, with “(8)” for “(7)”, “22” for “17”
as §12, with “(9)” for “(7)”, “27” for “17”
(10) The culture supernatant on day 32 post infection was collected.
(11) The collected culture supernatant on day 32 post infection was purified with a QIAamp (registered trademark) DNA Blood Mini Kit (manufactured by QIAGEN). The amount of HBV-DNA in the obtained solution was absolutely quantified by a real-time PCR method. In addition, the amount of HBsAg in the culture supernatant was absolutely quantified by chemiluminescent enzyme immunoassay using Lumipulse (registered trademark) HBsAg-HQ (manufactured by Fujirebio Inc.). A relative viral load (%) with respect to a control without the compound added was each calculated. […]

[3] = Hepatitis B virus, read-out: IC50 HBV-DNA
[4] = Hepatitis B virus, read-out: IC50 HBsAg

Compound	IC50 (HBV [1]; [3])	IC50 (HBV [1]; [4])	IC50 (HBV [2]; read-out: IC50 HBV-DNA)	IC50 (HBV [2]; read-out: IC50 HBsAg)	IC50 (HBV (genotype AeUS); read-out: IC50 HBV-DNA)	IC50 (HBV (genotype AeUS); read-out: IC50 HBsAg)	also measured
COCCOC1CN(c2nc3ccc(-n4cc(C(=O)O)c(=O)cc4-c4ccc(N5CC[C@@H](OC)C5)c(F)c4)cc3s2)C1 [Example 23-9]	–	–	–	–	–	–	IC50 (HBV [1]; read-out: IC50 HBV-DNA): 0.68 nM; IC50 (HBV [1]; read-out: IC50 HBsAg): 1.8 nM
COCCCOC1CN(c2nc3ccc(-n4cc(C(=O)O)c(=O)cc4-c4ccc(N5CC[C@@H](OC)C5)c(F)c4)cc3s2)C1 [Example 23-5]	–	–	–	–	–	–	IC50 (HBV [1]; read-out: IC50 HBV-DNA): 0.5 nM; IC50 (HBV [1]; read-out: IC50 HBsAg): 2.7 nM
CO[C@@H]1CCN(c2ccc(-c3cc(=O)c(C(=O)O)cn3-c3ccc4nc(N5CC[C@H](N6CCOCC6)C5)sc4c3)cc2F)C1 [Example 23-1, 6-(3-fluoro-4-((R)-3-methoxypyrrolidin-1-yl)phenyl)-1-(2-((S)-3-morpholinopyrrolidin-1-yl)benzo[d]thiazol-6-yl)-4-oxo-1,4-dihydropyridine-3-carboxylic acid]	1.7 nM	4.3 nM	–	–	–	–	–
COCCO[C@H]1CCN(c2ccc(-c3cc(=O)c(C(=O)O)cn3-c3ccc4nc(N5CCC[C@@H]5COC)sc4c3)cc2)C1 [Example 22-2, 6-(4-((S)-3-(2-methoxyethoxy)pyrrolidin-1-yl)phenyl)-1-(2-((R)-2-(methoxymethyl)pyrrolidin-1-yl)benzo[d]thiazol-6-yl)-4-oxo-1,4-dihydropyridine-3-carboxylic acid]	10 nM	22 nM	–	–	–	–	–
COCCO[C@H]1CCN(c2ccc(-c3cc(=O)c(C(=O)O)cn3-c3ccc4nc(N5CCOCC5)sc4c3)cc2)C1 [Example 22-1, (S)-6-(4-(3-(2-methoxyethoxy)pyrrolidin-1-yl)phenyl)-1-(2-morpholinobenzo[d]thiazol-6-yl)-4-oxo-1,4-dihydropyridine-3-carboxylic acid]	44 nM	89 nM	–	–	–	–	–
CCOC1CN(c2nc3ccc(-n4cc(C(=O)O)c(=O)cc4-c4ccc(N5CC[C@@H](OC)C5)c(F)c4)cc3s2)C1 [Example 23-6, (R)-1-(2-(3-ethoxyazetidin-1-yl)benzo[d]thiazol-6-yl)-6-(3-fluoro-4-(3-methoxypyrrolidin-1-yl)phenyl)-4-oxo-1,4-dihydropyridine-3-carboxylic acid]	0.45 nM	1.1 nM	–	–	–	–	–
CO[C@@H]1CCN(c2ccc(-c3cc(=O)c(C(=O)O)cn3-c3ccc4nc(N5CC(OCC6CCCO6)C5)sc4c3)cc2F)C1 (stereo partly drawn) [Example 23-3, 6-(3-fluoro-4-((R)-3-methoxypyrrolidin-1-yl)phenyl)-4-oxo-1-(2-(3-((tetrahydrofuran-2-yl)methoxy)azetidin-1-yl)benzo[d]thiazol-6-yl)-1,4-dihydropyridine-3-carboxylic acid]	0.61 nM	1.7 nM	–	–	–	–	–
CO[C@@H]1CCN(c2ccc(-c3cc(=O)c(C(=O)O)cn3-c3ccc4nc(N5CC(OCCF)C5)sc4c3)cc2F)C1 [Example 23-4]	–	–	–	–	–	–	IC50 (HBV [1]; read-out: IC50 HBV-DNA): 0.88 nM; IC50 (HBV [1]; read-out: IC50 HBsAg): 3.8 nM
CO[C@@H]1CCN(c2ccc(-c3cc(=O)c(C(=O)O)cn3-c3ccc4nc(N5CC(OC(C)C)C5)sc4c3)cc2F)C1 [Example 23-7, (R)-6-(3-fluoro-4-(3-methoxypyrrolidin-1-yl)phenyl)-1-(2-(3-isopropoxyazetidin-1-yl)benzo[d]thiazol-6-yl)-4-oxo-1,4-dihydropyridine-3-carboxylic acid]	0.65 nM	1.1 nM	–	–	–	–	–
Cc1nc2ccc(-n3cc(C(=O)O)c(=O)cc3-c3ccc(N4CCCC4)c(C#N)c3)cc2s1 [Example 16, 6-(3-Cyano-4-(pyrrolidin-1-yl)phenyl)-1-(2-methylbenzo[d]thiazol-6-yl)-4-oxo-1,4-dihydropyridine-3-carboxylic acid]	–	–	18 nM	15 nM	470 nM	190 nM	–
COCCO[C@@H]1CCN(c2ccc(-c3cc(=O)c(C(=O)O)cn3-c3ccc4nc(C)sc4c3)cc2)C1 [Example 9, (R)-6-(4-(3-(2-Methoxyethoxy)pyrrolidin-1-yl)phenyl)-1-(2-methylbenzo[d]thiazol-6-yl)-4-oxo-1,4-dihydropyridine-3-carboxylic acid]	–	–	55 nM	24 nM	580 nM	330 nM	–
O=C(O)c1cn(-c2ccc3nc(N4CCCC4)sc3c2)c(-c2ccc(N3CCCC3)cc2)cc1=O [Example 3-3, 4-oxo-1-(2-(pyrrolidin-1-yl)benzo[d]thiazol-6-yl)-6-(4-(pyrrolidin-1-yl)phenyl)-1,4-dihydropyridine-3-carboxylic acid]	–	–	2 nM	5 nM	52 nM	77 nM	–
Cc1nc2ccc(-n3cc(C(=O)O)c(=O)cc3-c3ccc(N4CCCC4)cc3)cc2s1 [Example 3-2, 1-(2-methylbenzo[d]thiazol-6-yl)-4-oxo-6-(4-(pyrrolidin-1-yl)phenyl)-1,4-dihydropyridine-3-carboxylic acid]	–	–	9 nM	3.1 nM	470 nM	150 nM	–
